These results are taken from US20170009228A1, “BIOLOGICAL MATERIALS AND THERAPEUTIC USES THEREOF” (IMPERIAL INNOVATIONS LIMITED, priority 2014, published 2017).

For test [1], the system named is human dermal fibroblasts (HDF). Description: Cell adhesion to coated FBG, human dermal fibroblasts. Type of test: cell-based. The note with it: coated wells, 45 minutes, crystal violet. As for the experimental part: (§1) (A) The sequence identified to bind integrin ≢vβ3 is shown in white (Yokoyama et al., 2000). Within this sequence two Arginines (shown in black) were identified to be citrullinated. (B) Wells of a 96 well plate were coated with different concentrations of FBG, citrullinated FBG (cFBG), FBG incubated in buffer without Calcium (FBG —Ca^2+), or FBG incubated without PAD (FBG -PAD). As a positive control wells were coated with Fibronectin (FN) (1 ug/ml), and coating with BSA (10 mg/ml) served as negative control. Plates were incubated with human dermal fibroblasts (HDF) or synovial fibroblasts from RA patients (RAF) for 45 minutes and adhesion was measured by determining absorbance of attached cells after staining with crystal violet (0.1%). Data are shown as the mean of at least four independent experiments+s.e.m., *=p<0.05, **=p<0.01.

For test [2], the system named is synovial fibroblasts from RA patients (RAF). The test is described as follows: Cell adhesion to coated FBG, RA synovial fibroblasts. The class given is cell-based, human. The note with it: coated wells, 45 minutes, crystal violet. As for the experimental part: as §1
Test [3] relates to primary human macrophages. The test is described as follows: TNF synthesis in primary human macrophages stimulated with native or citrullinated FBG. Type of test: cell-based. The note with it: 0.1-1.0 μM, 24 h. As for the experimental part:
Equal volumes of protein and 2× citrullination buffer (200 mM Tris HCl, pH 7.4, 20 mM CaCl2, 10 mM DTT) were mixed. 8.75 U rabbit skeletal PAD (product number P1584 from Sigma) per mg substrate protein was added and incubated for 3 hours at 37° C. or 2 hours at 50° C. Citrullination was confirmed by size shift visualized by coomassie blue staining of SDS PAGE or by AMC detection.
Primary human macrophages were isolated as described above and cultured at 1×10^5 cells/well in RPMI 1640 containing 5% (v/v) FBS and 100 U/ml penicillin/streptomycin in 96-well tissue culture plates for 24 h before stimulation. Cells were incubated for 24 h at 37° C. with no addition (UN), different concentrations (uM) of native FBG (nFBG) or cit FBG (cFBG) or citrullination buffer alone (CIT) or cit buffer plus PAD enzyme (CIT+PAD).
Supernatants were examined for the presence of the cytokines TNF-α by enzyme-linked immunosorbent assay (ELISA) according to the manufacturer's instructions (R&D systems). Absorbance was read on a spectrophotometric ELISA plate reader (Labsystems Multiscan Biochromic, Vantaa, Finland) and analyzed using the Ascent software program (Thermo Labsystems, Altrincham, UK).

Test [4] concerns primary human macrophages. Description: Stimulation of primary human macrophages with each FBG peptide. Type of test: cell-based. The note with it: 1 or 20 μM FBG peptide, 24 h. On the procedure:
(§2) After incubation the tissue was pipetted through a nylon mesh into a sterile beaker. The cells were then washed three times in complete medium (RPMI 1640 supplemented with 10% FCS). RA synovial fibroblasts were isolated from the mixed population of RA membrane cells by selection in DMEM (Bio-Whittaker) supplemented with 10% FBS, […], 100 U/ml penicillin, and streptomycin. Human monocytes were isolated from peripheral blood (London Blood Bank) and macrophages were derived from monocytes after differentiation for 4 days with 100 ng/ml of M-CSF.
(§3) Macrophages were cultured at 1×10^5 cells/well in RPMI 1640 containing 5% (v/v) FBS and 100 U/ml penicillin/streptomycin in 96-well tissue culture plates for 24 h before stimulation. Cells were incubated for 24 h at 37° C. with no addition, 1.0 μM FBG, 1 ng/ml LPS or 1 or 20 μM FBG peptide. Where stated, cells were pre-incubated with 20 μM FBG peptides for 15 min.
(§4) Supernatants were examined for the presence of the cytokines TNF-α, IL-6, and IL-8 by enzyme-linked immunosorbent assay (ELISA) according to the manufacturer's instructions (R&D systems). Absorbance was read on a spectrophotometric ELISA plate reader (Labsystems Multiscan Biochromic, Vantaa, Finland) and analyzed using the Ascent software program (Thermo Labsystems, Altrincham, UK).

The next test relates to human macrophages. Description: FBG or LPS induced cytokine synthesis in human macrophages pre-incubated with FBG peptides. The class given is cell-based. The note with it: pre-incubation with 20 μM peptide, 24 h; for FBG mediated cytokine synthesis: then 1 μM whole FBG. On the procedure:
as §2, §3, §4

The subject of test [5] is RA synovial membrane cultures. Description: Spontaneous cytokine synthesis in RA synovial membrane cultures incubated with FBG peptides. Type of test: cell-based, human. The note with it: for inhibition of cytokine synthesis at the highest concentrations / TNF and IL8 synthesis: RA synovial membrane cultures; for inhibition of cytokine synthesis at the highest concentrations: dose dependent, 25, 100 or 250 μM peptide, 24 h; for TNF and IL8 synthesis: spontaneous cytokine synthesis. On the procedure: RA membrane cells (representing a mixed population of all synovial cell types) were isolated from synovial membranes obtained from patients undergoing joint replacement surgery (Brennan (1989)). Synovial membrane tissue was digested in RPMI 1640 (GIBCO) containing 5% fetal calf serum (FCS) (GIBCO), 5 mg/ml collagenase type IV (Sigma) and 0 15 mg/ml DNAse type I (Sigma) and incubated at 37° C. for 2 h.
Immediately after isolation, RA membrane cells were cultured at 1×10^5 cells/well in RPMI 1640 containing 10% (v/v) FBS and 100 U/ml penicillin/streptomycin in 96-well tissue culture plates. Cells were incubated for 24 h at 37° C. with no addition, buffer control (PBS, 1% BSA, 0.01% NaN3), or with 25 μm, 100 μM or 250 μM of each FBG spanning peptide.
as §4

The next test deals with RA sera. Description: IgG response to cyclic citrullinated FBG peptides in RA and control sera. Type of test: binding, human. As to conditions: 20 RA and 20 control sera. The source says: (A) Peptides with sequences corresponding to the amino acid sequence of FBG were designed, with the addition of cysteine residues at the amino and carboxy termini and the exchange of arginine for citrulline residues at positions identified by LC-MS/MS. (B) IgG response to citrullinated FBG peptides and arginine containing control peptides in patients with rheumatoid arthritis (RA; n=20) and healthy controls (n=20). The 95th percentile of the control sera was used to determine positivity (dashed line). Mann-Whitney U test was used to calculate p values for differences between groups (n.s.=no significant difference, *=p<0.05 and **=p<0.01, ***=p<0.001, […]).
With reference to FIG. 31, the antibody response in 20 RA and 20 control sera to 6 cyclic FBG peptides, encompassing citrulline residues was evaluated.

The subject of a further test is MyD88. The test is described as follows: Cytokine synthesis in embryonic fibroblasts from MyD88 deficient mice. The class given is cell-based. The note with it: for cytokine synthesis: MEFs from MyD88 deficient mice, 24 h; for responsiveness after re-transfection of wild type MyD88: MyD88 deficient MEFs, data not shown. As for the experimental part: (§5) MEFs express high levels of mRNA of all 9 murine TLRs and are specifically and highly responsive to TLR ligand activation. […] MEFs were isolated from d13 embryos harvested from age-matched, pregnant female wild type, TLR2, TLR4 and null mice (as described in Todaro (1963)). Fibroblasts were cultured at 2×10^4 cells/well in DMEM containing 10% (v/v) FBS and 100 U/ml penicillin/streptomycin in 96-well tissue culture plates for 24 hours before stimulation.
(§6) Cells were incubated for 24 hours at 37° C. with the indicated doses of tenascin-C and recombinant tenascin-C fragments (1.0 μM-1.0 nM). Cells were also stimulated where indicated with LPS (1 ng/ml for human macrophages, 10 ng/ml for human fibroblasts, RA membrane cells and HEKs, 100 ng/ml for MEFS and BMDMs and 10 ng/ml for HEKS), PAM3 (10 ng/ml for human macrophages, human fibroblasts, and HEKs, 100 ng/ml for MEFs and BMDMs), murine IL-1 (5 ng/ml for MEFS) and murine TNF-α (100 ng/ml for MEFS). Unless specifically stated otherwise rough LPS was used for in vitro studies.
(§7) Supernatants were subsequently examined for the presence of the cytokines TNF-α, IL-6, and IL-8 by enzyme-linked immunosorbent assay (ELISA) according to the manufacturer's instructions. Absorbance was read on a spectrophotometric ELISA plate reader (Labsystems Multiscan Biochromic, Vantaa, Finland) and analyzed using the Ascent software program (Thermo Labsystems, Altrincham, UK).

The next test concerns TLR4. Description: Cytokine synthesis in embryonic fibroblasts or macrophages from TLR4 deficient mice. Type of test: cell-based. As for the experimental part: as §5
(§8) BMDMs were derived by aspirating the femurs of age matched female wild type, TLR2 and TLR4 null mice as described in Butler (1999)) and culturing the cells for 7 days in DMEM, 20% (v/v) FBS, 10 ml/L (v/v) antibiotic-antimycotic solution PSA, 50 μM β-Mercaptoethanol and 10 ng/ml M-CSF. Macrophages were then cultured at 1×10^5 cells/well in DMEM, 20% (v/v) FBS, 10 ml/L (v/v) antibiotic-antimycotic solution PSA, 50 μM β-Mercaptoethanol in 96-well tissue culture plates for 24 hours before stimulation.
as §6, §7

In the next test the test system is TLR2. The test is described as follows: Cytokine synthesis in embryonic fibroblasts or macrophages from TLR2 deficient mice. Type of test: cell-based. As for the experimental part:
as §5, §8, §6, §7

Where no end group is shown, it is not given here. [ ]: non-standard residue; d: D form. Cit = NC(=O)NCCC[C@H](N)C(=O)O

For “cFBG: FBG domain of tenascin-C citrullinated in vitro with PAD”, the “adhesion of human dermal fibroblasts (HDF)” value in test [1] was “reduces adhesion”. Further, in test [2], the “adhesion of synovial fibroblasts from RA joints (RAF)” value was “reduces adhesion”. Also, the “cytokine (TNFα) synthesis compared with native FBG” value in test [3] is “better at stimulating cytokine (e.g. TNFα) synthesis”.

In the case of “TIGLLYPFPKDCSQAMLNGDTTSGLYTIYL [Peptide 1]”, the cytokine synthesis result in test [4] is listed as “induced cytokine synthesis in a dose dependent manner”.

Regarding “ELRVDLRDHGETAFAVYDKFSVGDAKTRYK [Peptide 5]”, in the test with human macrophages, the “FBG mediated cytokine synthesis” value was “specifically blocked”. In test [4], the cytokine synthesis result is listed as “induced cytokine synthesis in a dose dependent manner”. Further, in test [5] (RA membrane cells, 24 h with peptide), the TNF synthesis result is on record as “no effect”. Also, the “maximal inhibition of IL8 synthesis” value in test [5] (RA membrane cells, dose dependent) is listed as 81%.

Turning to “CVFLRRKNG-Cit-ENFYQNWC (CVFLRRKNG[Cit]ENFYQNWC; not fully specified (bridges); printed as CVFLRRKNG-Cit-ENFYQNWC; also: cyclic, bridge not given here) [CIT55]”, the “antibody response in RA sera and control sera” value (“antibody response” for short) in the test on RA sera is “detected in RA sera but not control sera”.

With “KTRYKLKVEGYSGTAGDSMAYHNGRSFST [Peptide 6]”, the cytokine synthesis result in [4] is “induced cytokine synthesis in a dose dependent manner”.

Consider “CEMKLRPSNFRNLEG-Cit-Cit-KRC (CEMKLRPSNFRNLEG[Cit][Cit]KRC; not fully specified (bridges); printed as CEMKLRPSNFRNLEG-Cit-Cit-KRC; also: cyclic, bridge not given here) [CIT219/220]”, for which the “antibody response” value with RA sera is “detected in RA sera but not control sera”.

In the case of “WIVFLRRKNGRENFYQNWKAYAAGFGDRRE [Peptide 3]”, in [5], the “inhibition of cytokine synthesis at the highest concentrations” value came to 95%. For the same molecule, the “TNF and IL8 synthesis” value in test [5] (24 h with peptide) was “inhibited”.

Consider TNF-α [reference compound], for which the cytokine synthesis entry with MyD88 is listed as “unaffected”.

For the molecule Pam3Cys-Ser-Lys4 [reference compound], the cytokine synthesis result is listed as “abolished” with MyD88, “did respond” with TLR4 and “unresponsive” with TLR2. The “responsiveness after re-transfection of wild type MyD88” value with MyD88 is “restored the responsiveness”.

As for “WYRNCHRVNLMGRYGDNNHSQGVNWFHWKG [Peptide 8]”, the “cytokine synthesis in response to LPS” value in the test on human macrophages (then 1 ng/ml LPS) is “blocked”. Further, in the test on human macrophages, the “FBG mediated cytokine synthesis” value is “blocked”. Besides, the “inhibition of cytokine synthesis at the highest concentrations” value in [5] was 56%. Besides, in test [5] (24 h with peptide), the “TNF and IL8 synthesis” value is “inhibited”.

Consider “CEMKL-Cit-PSNF-Cit-NLEGRRKRC (CEMKL[Cit]PSNF[Cit]NLEGRRKRC; not fully specified (bridges); printed as CEMKL-Cit-PSNF-Cit-NLEGRRKRC; also: cyclic, bridge not given here) [CIT209/214]”, for which the “antibody response” value in the test with RA sera is recorded as “detected in RA sera but not control sera”.

B1: IL-1: murine IL-1 used to stimulate MEFs (protein, UniProt P10749 118-269, looked up)
Interleukin-1 beta: VPIRQLHYRLRDEQQKSLVLSDPYELKALHLNGQNINQQVIFSMSFVQGEPSNDKIPVALGLKGKNLYLSCVMKDGTPTLQLESVDPKQYPKKKMEKRFVFNKIEVKSKVEFESAEFPNWYISTSQAEHKPVFLGNNSGQDIIDFTMESVSS
As to B1, the results for the cytokine synthesis entry in the test with MyD88, with TLR4 and with TLR2 were “abolished”, “did respond” and “responsive”, respectively. Moreover, the “responsiveness after re-transfection of wild type MyD88” value in the test on MyD88 is on record as “restored the responsiveness”.
